# Measurements taken from patent publication US20100119530A1, “Regulation of TLR Signaling by Complement” (priority 2007, published 2010).
# T1: C5a receptor (C5aR) (Mus musculus, UniProt P30993)
# T1 construct: from tissue; host or cells: living mice (A4: C57BL/6 DAF-/-; A12: wild-type, with C5aR-/- mice as control)
# T1 sequence (P30993 1-351): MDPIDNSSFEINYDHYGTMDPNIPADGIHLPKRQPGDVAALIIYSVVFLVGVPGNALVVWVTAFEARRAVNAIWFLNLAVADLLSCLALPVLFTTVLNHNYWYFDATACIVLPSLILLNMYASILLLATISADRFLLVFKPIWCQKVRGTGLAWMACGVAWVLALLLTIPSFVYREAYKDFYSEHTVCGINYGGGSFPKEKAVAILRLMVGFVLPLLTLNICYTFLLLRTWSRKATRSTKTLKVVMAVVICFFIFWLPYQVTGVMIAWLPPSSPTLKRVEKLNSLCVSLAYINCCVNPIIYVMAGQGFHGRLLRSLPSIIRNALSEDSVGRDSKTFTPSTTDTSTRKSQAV
# T2: C5aR (Mus musculus, UniProt P30993)
# T2 construct: from tissue; host or cells: living mice (A4: C57BL/6 DAF-/-; A12: wild-type, with C5aR-/- mice as control)
# T2 sequence (P30993 1-351): T1 sequence (P30993 1-351)
# T3: C3a receptor (C3aR) (Mus musculus, UniProt O09047)
# T3 construct: Effect of a C3a receptor antagonist (C3aRa) and a C5a receptor antagonist (C5aRa) on LPS-induced plasma IL-6 levels in DAF^−/− mice; from tissue; host or cells: living C57BL/6 DAF-/- mice (whole animal)
# T3 sequence (O09047 1-477): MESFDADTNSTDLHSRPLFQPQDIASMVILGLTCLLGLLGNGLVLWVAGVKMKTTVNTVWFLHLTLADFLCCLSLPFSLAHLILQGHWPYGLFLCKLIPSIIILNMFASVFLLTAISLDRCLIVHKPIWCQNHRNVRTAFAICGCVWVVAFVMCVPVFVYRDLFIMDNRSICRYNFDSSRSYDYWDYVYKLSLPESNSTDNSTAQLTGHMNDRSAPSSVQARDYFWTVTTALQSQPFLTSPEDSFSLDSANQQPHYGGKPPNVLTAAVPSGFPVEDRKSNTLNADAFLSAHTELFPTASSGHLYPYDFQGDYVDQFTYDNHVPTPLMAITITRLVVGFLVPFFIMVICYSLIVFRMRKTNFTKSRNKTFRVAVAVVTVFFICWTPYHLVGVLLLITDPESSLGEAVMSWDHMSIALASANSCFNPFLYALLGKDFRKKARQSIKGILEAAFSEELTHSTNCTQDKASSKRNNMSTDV
# B1: IL-6: cytokine added to naive CD4 T cell cultures to drive Th-17 differentiation (protein, UniProt P08505 25-211, looked up)
# Interleukin-6: FPTSQVRRGDFTEDTTPNRPVYTTSQVGGLITHVLWEIVEMRKELCNGNSDCMNNDDALAENNLKLPEIQRNDGCYQTGYNQEICLLKISSGLLEYHSYLEYMKNNLKDNKKDKARVLQRDTETLIHIFNQEVKDLHKIVLPTPISNALLTDKLESQKEWLRTKTIQFILKSLEEFLKVTLRSTRQT
# B2: C5a: recombinant human C5a from Sigma-Aldrich; complement activation product, anaphylatoxin (protein, UniProt P01031 678-751, looked up)
# C5a anaphylatoxin: TLQKKIEEIAAKYKHSVVKKCCYDGACVNNDETCEQRAARISLGPRCIKAFTECCVVASQLRANISHKDMQLGR
# modifications: C5a anaphylatoxin
# How the values were obtained:
# [1] = system: naive CD4 T cells; experiment: Th-17 differentiation of purified naive CD4 T cells (anti-CD3/CD28) with cytokines or mouse sera, FACS; format: cell-based, mice; settings: for Th-17 differentiation, cytokine alone: cells treated with the cytokine alone; for Th-17 differentiation driven by serum of mice treated with the substance alone: naive CD4 T cells from wild-type mice, plate-bound anti-CD3 and CD28; for Effect of co-treatment on Th-17 differentiation driven by serum of LPS-treated mice: serum of mice co-treated with LPS and the substance
# Source text: To test whether the CVF-augmented inflammatory cytokine production promotes Th-17 differentiation, purified naive CD4 T cells from wild-type mice were stimulated in vitro with plate-bound anti-CD3 and CD28 in the presence of specific cytokines or sera of control (naive mouse) or LPS-, CVF-treated mice. […] The augmenting effect of CVF on LPS-dependent Th-17 differentiation required C3 and C5aR but not C3aR.
# The ability of C5a-induced augmentation of serum inflammatory cytokine production to promote Th-17 differentiation was assessed. Purified naive CD4 T cells from wild-type mice were stimulated in vitro with plate-bound anti-CD3 and CD28 in the presence of specific cytokines or sera of control (naive mouse) or LPS-, C5a-treated mice. […] Treatment of the cells with IL-6 alone or TGF-β alone had no effect on Th-17 differentiation. […] Thus the augmenting effect of C5a on LPS-dependent Th-17 differentiation required C5aR. These findings indicate that complement activation products, particularly C5a, synergize with the TLR activation pathway to augment inflammatory cytokine production. The complement system, through interaction with TLR, augments Th-17 differentiation and therefore plays a role in autoimmune tissue injury. FIGS. 8-11 provide evidence for this conclusion. Thus, inhibiting complement activation is a therapeutic approach for treating Th-17 T cell mediated autoimmune diseases such as multiple sclerosis, Lupus, inflammatory bowel disease, GvHD and transplant rejection.
# [2] = system: C3 activation fragments (C3b/iC3b/C3c); experiment: Complement activation assay (sandwich ELISA of plasma C3 activation fragments); format: in vivo; settings: plasma samples of CpG-treated mice
# Procedure: Levels of C3 activation fragments (C3b/iC3b/C3c) in plasma were measured by a sandwich ELISA. For quantification purposes, 1/500 serial dilutions of CVF-activated WT mouse plasma (prepared by adding 2.5 μg (1.2 units) of CVF to 50 μl plasma and incubating for 1 h at 37° C.) were used as a reference, and complement activation in all testing samples was normalized to this reference sample.
# [3] = target: T1, C5a receptor (C5aR); experiment: LPS-induced plasma IL-6 in DAF−/− mice treated with C5a receptor antagonist; format: in vivo; settings: 50 μg/mouse i.p. 30 minutes before LPS
# Procedure: (§1) Mice were injected with the following TLR ligands: LPS (20 mg/kg in PBS, i.p.), zymosan (1 g/kg in 0.9% saline, i.p.), CpG (20 mg/kg in PBS, i.p.). In some experiments, mice were also treated with CVF (15 U/mouse in saline, i.p.), SB290157 (30 mg/kg in 20% polyethylene glycol 400 in saline, i.p.), AcPhe (50 μg/mouse in PBS, i.p.). EDTA (20 mM) anti-coagulated blood samples were collected from the tail vein or vena cava. Plasma was prepared by centrifugation at 1000×g for 15 min at 4° C. and stored as small aliquots at −80° C.
# [4] = Measurement of plasma LPS levels (Pyrochrome Kit) after LPS injection; format: in vivo, mice; settings: 3 hours after LPS injection (20 mg/kg i.p.), n=12
# Procedure: as §1
# Plasma LPS levels were determined using the Pyrochrome Kit from Associates of CAPE COD Incorporated (East Falmouth, Mass.). Plasma samples were treated at 70° C. for 10 minutes before assays to heat-inactivate serine proteases. Levels were expressed as units/ml of endotoxin.
# [5] = system: TLR9; experiment: Plasma cytokine ELISA in mice after CpG, CVF or CpG/CVF treatment; format: in vivo; settings: wild-type mice, CVF co-treatment with CpG
# Procedure: as §1
# [6] = target: T2, C5aR; experiment: Synergistic effect of C5a with LPS on serum IL-6 in mice; format: in vivo
# Procedure: (§2) Next, the Synergistic effect of C5a with LPS in augmenting IL-6 production was tested. Instead of using the complement activator CVF, the complement activation product C5a was directly tested for its activity to synergize with LPS in IL-6 production. […] CVF treatment by itself has no effect on IL-6 production. Thus, the synergistic activity of C5a required C5aR as such an effect was not observed in C5aR^−/− mice (FIG. 10).
# [7] = system: TLR4 signaling; experiment: Plasma cytokine ELISA in mice after LPS, CVF or LPS/CVF treatment; format: in vivo; settings: 3 hours; for Reduction of LPS-induced IL-12p40 by CVF treatment: LPS/CVF vs LPS
# Procedure: as §1
# [8] = system: TLR2/6 signaling; experiment: Plasma cytokine ELISA in mice after zymosan or zymosan/CVF treatment; format: in vivo; settings: wild-type mice co-treated with zymosan and CVF, 3 hours
# Procedure: as §1
# [9] = system: LPS-induced cytokine production; experiment: Serum cytokine concentrations in mice treated with TLR and/or complement activators; format: in vivo; settings: mice co-treated with LPS and CVF
# Procedure: A set of experiment was conducted to measure serum concentrations of cytokines in mice untreated (NT) or treated with TLR and/or complement activators. […] On the other hand, CVF reduced LPS-induced IL-12 production (FIG. 8). Thus, the effect of CVF on LPS-induced cytokine production is dependent on complement C3 and C5aR but not C3aR signaling.
# [10] = target: T3, C3a receptor (C3aR); experiment: LPS-induced plasma IL-6 in DAF−/− mice treated with C3a receptor antagonist; format: in vivo; settings: 30 mg/kg i.p. 30 minutes before LPS
# Procedure: as §1
# [11] = system: C5aR; experiment: Synergistic effect of C5a with LPS on serum IL-6 in mice; format: in vivo; settings: C5aR−/− mice
# Procedure: as §2
# [12] = system: NF-kB luciferase reporter gene in RAW264.7 cells; experiment: NF-kB luciferase reporter gene assay and TNF-α ELISA in transfected RAW 264.7 cells; format: cell-based, murine; settings: transfected RAW264.7 cells
# Source text: RAW 264.7 cells were co-transfected with NF-kB Luc (Clontech, Palo Alto, Calif.), human C5aR in pcDNA3 (UMA cDNA resource center, Rolla, Mo.) and the Rellina control vector (Promega, Madison, Wis.) using the Amaxa Nucleofector apparatus (Amaxa Biosystems, Germany). The RAW 264.7 cells expressed detectible levels of endogenous C5aR as assessed by FACS and RT-PCR. After transfection, they also became weakly positive for human C5aR as assessed by FACS. […] Cell culture supernatants were collected for IL-6 and TNF-α assays by ELISA. All assays were performed in triplicates.
# [13] = wild-type mice, CVF co-treatment with LPS
# [14] = wild-type mice, CVF treatment alone
molecule,measurement,setting,value
TGF-β,"Th-17 differentiation, cytokine alone",[1],no effect
CpG 1826 (5′-TCCATGACGTFCCTGACGTT-3′),Complement activation in plasma,[2],detectable complement activation
AcPhe,Effect on the increase in LPS-induced IL-6 production,[3],totally blocked
lipopolysaccharide [LPS],Th-17 differentiation driven by serum of mice treated with the substance alone,[1],active in driving Th-17 differentiation
same,Plasma LPS concentration,[4]; DAF−/− mice,1200±307 EU/ml
same,Plasma LPS concentration,[4]; wild-type mice,925±413 EU/ml
Cobra venom factor [CVF],Effect on CpG-induced IL-1β production,[5],no significant impact
same,Effect on CpG-induced TNF-α production,[5],no significant impact
same,Effect on CpG-induced IL-6 production,[5]; 3 hours,no significant impact
same,Effect on CpG-induced IL-12p40 production,[5]; 3 hours,markedly suppressed
same,Serum IL-6 level,"[6]; mice co-treated with LPS, compared with LPS alone",greatly elevated
same,Effect on IL-6 production,"[6]; treatment by itself, without LPS",no effect
same,Reduction of LPS-induced IL-12p40 by CVF treatment,[7]; IL-10−/− mice,22%
same,Plasma IL-10 level,[7]; LPS/CVF-treated wild-type mice compared with LPS- or CVF-treated wild-type mice,strikingly elevated
same,Effect on LPS-induced plasma IL-6,[7]; [13],greatly increased
same,Effect on LPS-induced plasma IL-12p40,[7]; [13],decreased
same,Effect on IL-6 production,[7]; [14],negligible effect
same,Effect on IL-12p40 production,[7]; [14],negligible effect
same,Reduction of LPS-induced IL-12p40 by CVF treatment,[7]; wild-type mice,87%
same,Th-17 differentiation driven by serum of mice treated with the substance alone,[1],unable to drive Th-17 differentiation
same,Effect of co-treatment on Th-17 differentiation driven by serum of LPS-treated mice,[1],strongly augmented
same,Effect on zymosan-induced IL-6 production,[8],Markedly increased
same,Effect on zymosan-induced IL-12p40 production,[8],decreased
same,Effect on LPS-induced IL-12 production,[9],reduced
same,Effect on LPS-induced serum IL-1β,[9],augmented
same,Effect on LPS-induced serum IL-6,[9],augmented
same,Effect on LPS-induced serum TNF-α,[9],augmented
NC(N)=NCCC[C@H](NC(=O)COCC(c1ccccc1)c1ccccc1)C(=O)O [SB 290157],Effect on the increase in LPS-induced IL-6 production,[10],significantly (p<0.001) attenuated
B1,Th-17 differentiation in the presence of TGF-β,[1]; IL-6 in the presence of TGF-β,differentiated into Th-17 cells
same,"Th-17 differentiation, cytokine alone",[1],no effect
B2,Synergistic effect with LPS on IL-6 production,[11],not observed
same,Th-17 differentiation driven by serum of mice treated with the substance alone,[1],unable to drive Th-17 differentiation
same,Effect of co-treatment on Th-17 differentiation driven by serum of LPS-treated mice,[1],strongly augmented
same,Secretion of endogenous TNF-α,[12]; C5a (50 nM) with LPS (1000 ng/ml) per FIG. 4D legend,synergized with LPS
same,Secretion of endogenous TNF-α,[12]; C5a alone,negligible effect on its own
